Source: ChEMBL document CHEMBL1201862, “PubChem BioAssay data set” (2004)
Structures can show the parent of a compound that is named as a salt. Active and inactive are the calls of the source.

How the values were obtained:
[1] = biological target: T1, NADPH oxidase 1 (Homo sapiens, UniProt Q9Y5S8); test: Late-stage luminescence-based cell-based dose response assay to identify inhibitors of NADPH oxidase 1 (NOX1): Purchased analogs 2.; type: functional
T1 sequence (Q9Y5S8 whole entry): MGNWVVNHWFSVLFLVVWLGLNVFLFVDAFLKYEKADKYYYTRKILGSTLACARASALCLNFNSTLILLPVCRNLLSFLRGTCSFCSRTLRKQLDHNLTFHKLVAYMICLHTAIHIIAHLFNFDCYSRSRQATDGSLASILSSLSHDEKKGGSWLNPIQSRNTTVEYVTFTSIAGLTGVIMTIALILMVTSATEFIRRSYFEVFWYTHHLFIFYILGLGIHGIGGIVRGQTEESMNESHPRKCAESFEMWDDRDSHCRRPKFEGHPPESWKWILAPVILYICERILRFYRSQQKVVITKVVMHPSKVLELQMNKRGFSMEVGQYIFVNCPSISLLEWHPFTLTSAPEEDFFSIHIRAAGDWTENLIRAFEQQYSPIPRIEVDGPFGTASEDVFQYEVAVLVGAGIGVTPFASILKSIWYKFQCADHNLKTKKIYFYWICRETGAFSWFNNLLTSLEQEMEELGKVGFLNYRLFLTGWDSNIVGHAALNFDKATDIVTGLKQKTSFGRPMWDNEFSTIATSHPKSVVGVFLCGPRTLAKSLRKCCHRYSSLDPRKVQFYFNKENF

[2] = viability loss in Vero cells – cytotoxicity control for Vif-APOBEC3G degradation inhibitor project, dose response (AID 1117358); type: functional; details: Vero
[3] = biological target: T2, High affinity choline transporter 1 (Homo sapiens, UniProt Q9GZV3); test: human choline transporter blockers, potency – cell-based, 10-point CRC, membrane potential dye, dose response (AID 588401); type: functional;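 further: membrane potential dye fluorescence of choline-evoked depolarization via CHT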
T2 sequence (Q9GZV3 whole entry): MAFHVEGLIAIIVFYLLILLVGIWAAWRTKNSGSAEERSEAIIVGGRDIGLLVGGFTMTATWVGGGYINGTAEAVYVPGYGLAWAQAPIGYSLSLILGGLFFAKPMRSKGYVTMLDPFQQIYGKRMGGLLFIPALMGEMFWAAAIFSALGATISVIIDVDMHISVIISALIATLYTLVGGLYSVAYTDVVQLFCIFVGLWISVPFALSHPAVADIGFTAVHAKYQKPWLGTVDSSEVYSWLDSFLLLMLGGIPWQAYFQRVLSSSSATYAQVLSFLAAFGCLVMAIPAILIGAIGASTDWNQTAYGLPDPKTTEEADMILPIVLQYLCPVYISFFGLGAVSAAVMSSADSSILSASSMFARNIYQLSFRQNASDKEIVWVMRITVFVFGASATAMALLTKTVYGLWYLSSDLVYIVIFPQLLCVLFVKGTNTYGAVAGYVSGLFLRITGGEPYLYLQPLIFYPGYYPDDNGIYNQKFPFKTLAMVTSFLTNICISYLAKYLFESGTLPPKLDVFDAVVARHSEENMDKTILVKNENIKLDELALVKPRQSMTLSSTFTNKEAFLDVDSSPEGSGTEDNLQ

[4] = tested on: Vero; test: inhibition of WNV-induced cytopathic effect – cell-based, CPE readout (AID 1621); type: functional; details: Chlorocebus sabaeus
[5] = tested on: Vero; test: cells; type: functional, cell-based; details: Chlorocebus sabaeus
[6] = tested on: Vero; test: cells; type: functional; details: Chlorocebus sabaeus
[7] = biological target: Fructose-bisphosphate aldolase (Mycobacterium tuberculosis, UniProt P9WQA3); test: Fluorescence-based biochemical high throughput dose response assay for inhibitors of the fructose-bisphosphate aldolase (FBA) of M. tuberculosis.; type: functional
[8] = biological target: T2, High affinity choline transporter 1; test: human choline transporter blockers, potency – cell-based, 5-point CRC, membrane potential dye, dose response (AID 504840); type: functional
[9] = Fluorescence Cell-Based Dose Response to Identify Inhibitors of Thrombin Receptor-Activating Peptide SFLLRN-Mediated P-Selectin Induction on Platelets. [Related pubchem assays: 1663 (Primary HTS), 1889 (retest at dose ), 1891 (counterscreen), 1678 (Project Summary)]; type: functional
[10] = biological target: Luciferin 4-monooxygenase (Photinus pyralis, UniProt P08659); test: inhibition of purified Photinus pyralis luciferase – biochemical, luminescence, dose response (AID 1891)
[11] = Luminescence Cell-Based Dose Confirmation HTS to Identify Inhibitors of Platelet Dense Granule Release. [Related pubchem assays: 1663 (Primary HTS), 1678 (Summary of Project)]; type: functional
[12] = biological target: T3, Tyrosine-protein phosphatase non-receptor type 7 (Homo sapiens, UniProt P35236); test: HePTP tyrosine phosphatase activity blockers – biochemical, absorbance, leukemia target, primary screen (AID 521); type: functional
T3 sequence (P35236 whole entry): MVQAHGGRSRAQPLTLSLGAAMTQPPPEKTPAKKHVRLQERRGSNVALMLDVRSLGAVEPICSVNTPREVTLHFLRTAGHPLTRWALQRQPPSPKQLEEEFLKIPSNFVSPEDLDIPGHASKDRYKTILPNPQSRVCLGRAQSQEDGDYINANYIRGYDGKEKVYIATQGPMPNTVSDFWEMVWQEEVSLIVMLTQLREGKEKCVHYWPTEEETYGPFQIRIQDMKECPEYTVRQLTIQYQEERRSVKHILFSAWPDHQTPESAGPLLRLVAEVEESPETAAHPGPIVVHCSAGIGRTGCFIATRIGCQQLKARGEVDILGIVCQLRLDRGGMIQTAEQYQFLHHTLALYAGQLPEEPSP

[13] = biological target: Diphosphomevalonate decarboxylase (Streptococcus pneumoniae serotype 2 (strain D39 / NCTC 7466), UniProt Q9FD53); test: diphosphomevalonate decarboxylase inhibitor confirmation – biochemical, cuvette format, coupled NADH fluorescence (AID 1028); type: functional
[14] = biological target: Genome polyprotein (Hepatitis C virus, UniProt Q2Q167); test: disruption of hepatitis C core self-association – biochemical, TR-FRET, dose response (AID 2159); design: species or system Hepacivirus hominis;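 further: blocks dimerization of HCV core protein measured by TR-FRET between tagged core106 pairs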
[15] = biological target: Signal transducer and activator of transcription 1-alpha/beta (Homo sapiens, UniProt P42224); test: inhibition of STAT1 reporter activity – cell-based, NIH 3T3, luciferase reporter, dose response (AID 1396); type: functional
[16] = Luminescence Cell-Based Dose Response HTS to Identify Activators of Luciferase Translation or Activity in H4 […] Cells. [Related pubchem assays: 1829 (Project Summary), 1814 (Primary HTS)]; type: functional
[17] = tested on: H4; test: Luminescence Cell-Based Dose Response HTS to Identify Activators of 5'UTR Stem-Loop Driven Prion Protein mRNA Translation in H4 Neuroglioblastoma Cells. [Related pubchem assays: 1829 (Project Summary), 1814 (Primary HTS)]; type: functional; details: Homo sapiens
[18] = Luminescence Cell-Based Dose Confirmation HTS to Identify Activators of 5'UTR Stem-Loop Driven Alpha-Synuclein mRNA Translation in H4 Neuroglioblastoma Cells. [Related pubchem assays: 1829 (Project Summary), 1814 (Primary HTS)]; type: functional
[19] = biological target: Transthyretin (Homo sapiens, UniProt P02766); test: Luminescence-based cell-based high throughput dose response assay to identify activators of Transthyretin (TTR) transcription.; type: functional
[20] = biological target: T4, Zinc finger protein mex-5 (Caenorhabditis elegans, UniProt Q9XUB2); test: potency of MEX-5 RNA-binding blockers – biochemical, C. elegans, fluorescence polarization, dose response (AID 1960)
T4 sequence (Q9XUB2 whole entry): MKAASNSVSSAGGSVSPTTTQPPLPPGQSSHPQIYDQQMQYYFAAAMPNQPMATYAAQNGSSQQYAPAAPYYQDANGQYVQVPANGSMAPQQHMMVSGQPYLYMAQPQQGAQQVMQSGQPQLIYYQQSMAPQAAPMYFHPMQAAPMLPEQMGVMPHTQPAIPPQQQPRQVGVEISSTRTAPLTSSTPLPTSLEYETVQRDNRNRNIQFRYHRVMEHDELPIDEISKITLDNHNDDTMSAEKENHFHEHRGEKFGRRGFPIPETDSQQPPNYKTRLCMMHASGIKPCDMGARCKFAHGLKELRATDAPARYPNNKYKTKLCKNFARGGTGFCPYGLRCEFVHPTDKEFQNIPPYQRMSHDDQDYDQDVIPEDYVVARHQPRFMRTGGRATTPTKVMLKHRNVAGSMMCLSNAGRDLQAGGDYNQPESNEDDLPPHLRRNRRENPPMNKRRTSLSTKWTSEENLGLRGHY

[21] = biological target: T5, RNA-binding protein pos-1 (Caenorhabditis elegans, UniProt G5EF15); test: disruptors of C. elegans POS-1 RNA interaction – biochemical, fluorescence polarization, dose response (AID 1964);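 further: purified POS-1 fused to maltose binding protein made in E. coli; potency of compounds blocking POS-1 binding to fluorescent RNA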
T5 sequence (G5EF15 whole entry): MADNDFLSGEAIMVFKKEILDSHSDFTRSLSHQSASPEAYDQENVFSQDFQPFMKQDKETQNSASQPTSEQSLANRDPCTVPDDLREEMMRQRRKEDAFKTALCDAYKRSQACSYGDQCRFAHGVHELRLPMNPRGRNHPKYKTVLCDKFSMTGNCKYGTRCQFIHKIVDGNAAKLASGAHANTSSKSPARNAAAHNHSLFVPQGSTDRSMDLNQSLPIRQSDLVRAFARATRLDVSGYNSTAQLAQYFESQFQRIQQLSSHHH

[22] = biological target: RNA-editing ligase 1, mitochondrial (Trypanosoma brucei brucei, UniProt P86926); test: inhibition of trypanosome RNA editing ligase – biochemical, fluorescence, Trypanosoma brucei, dose response (AID 1117295); type: functional
[23] = biological target: T6, Caspase-6 (Homo sapiens, UniProt P55212); test: inhibition of CASP6 peptide cleavage – biochemical, VEID-R110 fluorescence, cherry-pick, dose response (AID 720632)
T6 sequence (P55212 whole entry): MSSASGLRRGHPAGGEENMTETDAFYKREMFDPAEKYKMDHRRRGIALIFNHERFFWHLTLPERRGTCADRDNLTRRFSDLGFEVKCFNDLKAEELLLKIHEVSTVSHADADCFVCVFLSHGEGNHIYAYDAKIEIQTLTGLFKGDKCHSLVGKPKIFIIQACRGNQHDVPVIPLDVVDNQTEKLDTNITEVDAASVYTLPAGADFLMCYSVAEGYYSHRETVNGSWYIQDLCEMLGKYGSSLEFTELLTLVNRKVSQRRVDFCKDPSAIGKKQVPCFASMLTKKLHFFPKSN

[24] = biological target: T7, Carboxy-terminal domain RNA polymerase II polypeptide A small phosphatase 1 (Homo sapiens, UniProt Q9GZU7); test: CTDSP1 inhibitors, concentration-response, biochemical, absorbance readout, ultra-high-throughput screen actives (AID 540297); type: functional
T7 sequence (Q9GZU7 whole entry): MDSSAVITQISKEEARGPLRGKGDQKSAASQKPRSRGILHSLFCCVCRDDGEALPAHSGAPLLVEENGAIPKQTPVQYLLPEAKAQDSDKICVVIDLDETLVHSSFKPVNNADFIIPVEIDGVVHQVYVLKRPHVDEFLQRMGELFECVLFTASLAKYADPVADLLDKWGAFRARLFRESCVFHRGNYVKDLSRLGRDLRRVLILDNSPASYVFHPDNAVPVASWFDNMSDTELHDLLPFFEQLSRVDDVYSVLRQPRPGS

[25] = biological target: T8, Low molecular weight phosphotyrosine protein phosphatase (Homo sapiens, UniProt P24666); test: inhibition of human LMPTP enzyme activity – biochemical, absorbance, pNPP substrate, LMPTP-A isoform, set 2, orthogonal assay, dose response (AID 743308); type: functional
T8 sequence (P24666 whole entry): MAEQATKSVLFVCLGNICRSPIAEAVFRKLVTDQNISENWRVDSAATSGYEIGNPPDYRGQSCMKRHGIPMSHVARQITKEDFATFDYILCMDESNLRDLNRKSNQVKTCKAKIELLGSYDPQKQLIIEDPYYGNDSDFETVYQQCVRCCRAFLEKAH

[26] = biological target: T8, Low molecular weight phosphotyrosine protein phosphatase; test: inhibition of LMPTP-A enzymatic activity – biochemical, OMFP substrate, fluorescence intensity, set 2, dose response (AID 743307); type: functional
[27] = biological target: G-protein coupled receptor 183 (Homo sapiens, UniProt P32249); test: SAR confirmation of small molecule antagonists of the EBI2 receptor via a luminescent beta-arrestin assa.; type: functional
[28] = cells; type: functional, cell-based; details: INS-1E
[29] = IC50 of insulin release inhibition, rat insulinoma INS-1E line, 5 mM glucose, cell-based (AID 1117331); type: functional

Chain of Luciferin 4-monooxygenase (P08659 whole entry): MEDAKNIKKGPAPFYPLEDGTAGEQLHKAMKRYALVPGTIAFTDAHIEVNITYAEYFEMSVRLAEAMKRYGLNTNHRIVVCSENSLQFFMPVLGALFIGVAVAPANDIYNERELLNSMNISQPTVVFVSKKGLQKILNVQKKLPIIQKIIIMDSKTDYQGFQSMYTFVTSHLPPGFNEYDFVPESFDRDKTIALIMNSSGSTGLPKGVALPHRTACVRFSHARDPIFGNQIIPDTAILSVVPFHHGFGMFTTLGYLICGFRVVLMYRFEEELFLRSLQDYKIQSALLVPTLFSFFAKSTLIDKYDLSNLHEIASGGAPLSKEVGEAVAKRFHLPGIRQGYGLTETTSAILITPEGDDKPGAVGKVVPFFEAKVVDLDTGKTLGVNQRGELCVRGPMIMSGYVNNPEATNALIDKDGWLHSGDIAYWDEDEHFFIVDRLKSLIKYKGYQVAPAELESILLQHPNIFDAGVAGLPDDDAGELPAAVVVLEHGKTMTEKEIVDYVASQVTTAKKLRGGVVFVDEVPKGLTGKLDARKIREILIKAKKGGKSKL
Chain of Fructose-bisphosphate aldolase (P9WQA3 whole entry): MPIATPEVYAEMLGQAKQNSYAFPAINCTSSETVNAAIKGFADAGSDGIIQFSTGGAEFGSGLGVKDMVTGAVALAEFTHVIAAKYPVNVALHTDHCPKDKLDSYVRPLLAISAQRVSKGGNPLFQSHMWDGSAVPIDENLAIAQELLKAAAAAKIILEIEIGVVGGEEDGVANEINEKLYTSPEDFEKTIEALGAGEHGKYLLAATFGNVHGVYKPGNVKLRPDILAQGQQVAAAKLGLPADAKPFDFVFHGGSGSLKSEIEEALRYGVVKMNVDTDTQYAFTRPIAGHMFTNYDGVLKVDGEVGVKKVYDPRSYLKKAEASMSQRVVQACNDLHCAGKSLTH
Chain of Diphosphomevalonate decarboxylase (Q9FD53 whole entry): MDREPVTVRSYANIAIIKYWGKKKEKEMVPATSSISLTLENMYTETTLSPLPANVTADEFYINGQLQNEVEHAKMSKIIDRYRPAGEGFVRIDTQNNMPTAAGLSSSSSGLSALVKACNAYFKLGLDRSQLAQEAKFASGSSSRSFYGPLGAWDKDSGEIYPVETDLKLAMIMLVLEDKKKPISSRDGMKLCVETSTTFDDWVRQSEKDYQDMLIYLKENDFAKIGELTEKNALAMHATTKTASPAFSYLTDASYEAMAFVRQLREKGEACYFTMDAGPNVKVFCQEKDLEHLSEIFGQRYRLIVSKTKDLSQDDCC
Chain of Signal transducer and activator of transcription 1-alpha/beta (P42224 whole entry): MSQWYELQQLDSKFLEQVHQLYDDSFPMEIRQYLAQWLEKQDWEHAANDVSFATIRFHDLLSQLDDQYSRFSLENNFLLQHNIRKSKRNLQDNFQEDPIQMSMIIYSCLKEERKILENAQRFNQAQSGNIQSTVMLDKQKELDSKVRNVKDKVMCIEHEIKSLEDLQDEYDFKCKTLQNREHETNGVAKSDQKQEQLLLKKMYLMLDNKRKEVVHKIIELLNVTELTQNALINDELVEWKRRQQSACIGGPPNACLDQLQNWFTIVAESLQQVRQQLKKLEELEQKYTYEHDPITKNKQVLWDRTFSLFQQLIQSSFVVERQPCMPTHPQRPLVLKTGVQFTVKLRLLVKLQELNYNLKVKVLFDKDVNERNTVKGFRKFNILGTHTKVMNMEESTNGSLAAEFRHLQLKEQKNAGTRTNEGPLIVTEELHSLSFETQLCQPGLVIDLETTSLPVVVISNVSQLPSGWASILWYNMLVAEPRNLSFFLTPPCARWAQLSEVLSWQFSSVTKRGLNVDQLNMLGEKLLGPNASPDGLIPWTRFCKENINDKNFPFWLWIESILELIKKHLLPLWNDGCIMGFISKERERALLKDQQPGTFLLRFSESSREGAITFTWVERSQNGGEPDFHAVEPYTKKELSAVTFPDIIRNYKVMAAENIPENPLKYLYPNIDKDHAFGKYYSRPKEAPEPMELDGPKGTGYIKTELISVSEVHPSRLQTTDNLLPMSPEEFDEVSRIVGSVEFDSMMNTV
Chain of Genome polyprotein (Q2Q167 whole entry): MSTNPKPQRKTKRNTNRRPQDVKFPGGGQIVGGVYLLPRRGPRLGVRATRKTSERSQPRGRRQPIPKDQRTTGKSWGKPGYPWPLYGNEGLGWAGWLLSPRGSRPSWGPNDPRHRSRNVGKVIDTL
Chain of G-protein coupled receptor 183 (P32249 whole entry): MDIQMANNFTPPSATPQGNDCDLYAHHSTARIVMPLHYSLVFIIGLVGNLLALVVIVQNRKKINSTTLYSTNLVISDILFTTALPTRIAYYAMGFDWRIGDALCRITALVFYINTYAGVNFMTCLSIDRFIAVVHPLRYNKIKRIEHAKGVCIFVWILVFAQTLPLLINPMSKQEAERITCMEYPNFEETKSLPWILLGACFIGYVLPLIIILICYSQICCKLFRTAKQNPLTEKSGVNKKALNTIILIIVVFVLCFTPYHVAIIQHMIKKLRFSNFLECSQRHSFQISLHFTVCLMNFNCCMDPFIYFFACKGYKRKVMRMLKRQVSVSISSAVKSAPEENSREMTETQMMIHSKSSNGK
Chain of RNA-editing ligase 1, mitochondrial (P86926 whole entry): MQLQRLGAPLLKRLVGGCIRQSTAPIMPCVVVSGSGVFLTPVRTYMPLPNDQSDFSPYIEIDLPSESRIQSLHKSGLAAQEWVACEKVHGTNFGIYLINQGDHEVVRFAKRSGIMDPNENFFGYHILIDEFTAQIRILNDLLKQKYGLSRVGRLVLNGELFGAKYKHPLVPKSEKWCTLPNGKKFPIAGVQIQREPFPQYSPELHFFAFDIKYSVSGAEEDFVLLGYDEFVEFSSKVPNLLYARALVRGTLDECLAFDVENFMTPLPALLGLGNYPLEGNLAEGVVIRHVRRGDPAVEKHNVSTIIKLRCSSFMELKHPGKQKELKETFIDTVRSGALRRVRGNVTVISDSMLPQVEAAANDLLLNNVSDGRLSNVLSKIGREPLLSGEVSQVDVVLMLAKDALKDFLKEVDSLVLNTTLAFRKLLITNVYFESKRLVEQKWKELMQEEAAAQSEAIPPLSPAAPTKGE

## C=C(NNc1c(Cl)c(Cl)nc(C(=O)O)c1Cl)c1ccc2cc(OC)ccc2c1
[1]
  IC50: > 17 µM (not active)

## Cc1onc(-c2ccccc2Cl)c1C(=O)N1CCN(c2cccc(Cl)c2)CC1
[2]
  CC50: > 40 µM (active)

## CN1CCN(CCNC(=O)c2ccc3nc(-c4ccc(F)cc4)c(-c4ccc(F)cc4)nc3c2)CC1
[3]
  IC50: 1.58 µM (active)
[4]
  IC50: 21.7 µM (active)
[5]
  IC50: > 25 µM (active)
[6]
  CC50: 16.9 µM (active)
[7]
  IC50: > 1.11 µM (active)
[8]
  IC50: 4.58 µM (active)

## CCOc1ccc2[nH]c(NCCO)nc2c1
[9]
  EC50: > 100 µM (not active)
[10]
  EC50: > 112 µM (not active)
[11]
  EC50: 0.205 µM (active)

## O=C(Nc1ncnc2c1ncn2C1OC(COC(=O)c2ccccc2)C(F)C1O)c1ccccc1 (centres undefined)
[12]
  IC50: > 100 µM (not active)

## CCCNC(=O)c1cccc(-n2sc3ccccc3c2=O)c1
[13]
  IC50: 18.4 µM (active)

## Cc1ccc(S(=O)(=O)N2Cc3ccccc3CC2C(=O)Nc2ccc3c(c2)OCO3)cc1 (centres undefined)
[14]
  IC50: > 49.8 µM (not active)

## O=C(c1ccco1)N1CCN(c2[nH]cnc3c4ccccc4nc2-3)CC1
[15]
  IC50: 16.9 µM (not active)

## O=C/C(=C\Nc1ccccn1)c1nc2ccccc2o1
[16]
  EC50: 10.2 µM (active)
[17]
  EC50: 32.7 µM (active)
[18]
  EC50: > 120 µM (not active)
[19]
  EC50: > 167 µM (inactive)
[20]
  EC50: > 300 µM (not active)
[21]
  EC50: > 300 µM (not active)

## O=C(N/N=C/c1ccc(OC(=O)c2ccccc2Cl)cc1)c1cc(O)cc(O)c1
[22]
  IC50: 41 µM (inactive)
[23]
  AC50: 1.11 µM (active)
[24]
  IC50: 1.4 µM (active)

## CN(C)CCNc1cc(-c2ccccc2)nc2ccccc12
[25]
  IC50: 12 µM (active)
[26]
  IC50: 5.72 µM (active)

## O=C(/C=C/c1ccc(Br)cc1)N1CCN(Cc2ccc(Cl)cc2C(F)(F)F)CC1
[27]
  IC50: 0.00523 µM (active)

## CN(C)CC[C@@H](c1ccc(Br)cc1)c1ccccn1 [DEXBROMPHENIRAMINE MALEATE]
[28]
  IC50: 6.37 µM (inactive)
[29]
  IC50: 3.76 µM (active)
